Key:
[1] = test system: conjunctival blood vessels of rabbit eyes; test: Evans blue dye assay of conjunctival vascular permeability; format: in vivo, New Zealand White rabbits
Description: Method 1: Evans blue dye assay. […] Animals were anesthetized with 2-5% isofluorane gas administered via mask. The eyes were sterilized with 5% iodine (povidone iodine (HUMCO, Texarkana, Tex., USA) diluted to 5% in BSS (Alcon, Fort Worth, Tex., USA)) and 2-3 drops of 0.5% ophthalmic proparacaine (Alcon, Fort Worth, Tex., USA) was administered as a topical anesthetic. Right eyes (OD) received subconjunctival injections of 50 microliters of C-NOD in 100% DMSO. Left eyes (OS) received subconjunctival injections of 50 microliters of 100% DMSO. 40 mg/kg of Evans blue dye (Sigma-Aldrich, St. Louis, Mo., USA) was then injected into an ear vein. Eyes were photographed and tear samples were collected at 1, 2 and 3 days post injection. Tears were collected by insertion of 7 mm discs of Whatman 3M filter paper (Whatman, Inc., Piscataway, N.J., USA) under the lower eyelid for 2 minutes. The filter paper discs were stored in 200 microliters of a phosphate buffered saline solution […] at 5-10° C. Absorption at 620 nm was used to quantify Evans blue dye in tears.
An initial test of the ability of a nitric oxide donor B-NOD (Bing, R. J., Biochem. Biophys. Res. Comm. (2000) 275, 350) to increase conjunctival vascular permeability was performed. Fifty microliters of 100 mg/ml B-NOD in DMSO was injected OD, while DMSO vehicle was injected OS. Some eyes received no injection. Vascular permeability was assessed using the Evans blue dye assay. […] The difference between B-NOD and C-NOD may be due to the shorter half-life predicted for B-NOD.

rabbit eyes (tears) = test: Total protein and serum albumin assay of tears; format: in vivo, New Zealand White rabbits
Description: Prior to subconjunctival injection, tear samples were collected from the eyes of the rabbits. Tears were collected by simultaneous insertion of two 7 mm discs of Whatman 3M filter paper (Whatman, Inc., Piscataway, N.J., USA) under the lower eyelid for 2 minutes. The filter paper discs were stored in 200 microliters of a phosphate buffered saline solution containing 0.05% Tween and 0.02% sodium azide at 5-10° C. Animals were anesthetized with 2-5% isofluorane gas administered via mask. The eyes were sterilized with 5% iodine (povidone iodine (HUMCO, Texarkana, Tex., USA) diluted to 5% in BSS (Alcon, Fort Worth, Tex., USA)) and 2-3 drops of 0.5% ophthalmic proparacaine (Alcon, Fort Worth, Texan, USA) was administered as a topical anesthetic. Right eyes (OD) received subconjunctival injections of 50 microliters of C-NOD in 100% DMSO. Left eyes (OS) received subconjunctival injections of 50 microliters of 100% DMSO. Tear samples were collected at 1 hour, then every day for up to 5 days.
Protein content of tears was assessed by two methods. First, total protein was measured using a Bio-Rad Protein Assay Kit (Bio-Rad Laboratories, Hercules, Calif., USA). Second, rabbit serum albumin was measured using an Assaypro Rabbit Albumin ELISA kit (Assaypro LLC, St. Charles, Mo., USA). Both kits were used according to the manufacturer's instructions. […]

rabbit eyes = conditions: 1 day post-injection
Description: Initial tests on some other candidate stimulators of vascular permeability was performed.

[2] = test system: epithelial corneal lesions in diabetic patients; conditions: prospective, randomized, masked clinical trial; cited from earlier work

CCOC(=O)Oc1ccccc1C(=O)Oc1cccc(CO[N+](=O)[O-])c1 [C-NOD]
presence of subconjunctival dark Evans blue dye (photographs) ([1]; 66 mg/ml subconjunctival, 24, 48 and 72 hours post injection, versus vehicle injected eyes): evident | Evans blue dye in tears versus DMSO vehicle injected eyes ([1]; absorption at 620 nm, in most cases, especially at 48 hours): more Evans blue dye present in the tears | total protein content of tears (rabbit eyes (tears); 10 or 20 mg/cc, 1 day post injection, relative to uninjected eyes, N=4): significantly increased protein content of tears | proportion of serum albumin in tears (albumin to total protein) (rabbit eyes (tears); each concentration, relative to vehicle injection, 1 hour and 5 days post-injection): increased

NCCc1c[nH]c2ccc(O)cc12 [Serotonin]
Chemosis (rabbit eyes): Trace | Injection (rabbit eyes): None | Mucous discharge (rabbit eyes): None

O=C(Oc1cccc(CO[N+](=O)[O-])c1)c1ccccc1O [B-NOD]
Evans blue dye in tears versus uninjected eyes ([1]; 50 microliters of 100 mg/ml in DMSO, by 24 hours): This difference disappeared | Evans blue dye in tears versus uninjected eyes ([1]; 50 microliters of 100 mg/ml in DMSO, six hours post-injection): more Evans blue dye than did uninjected eyes | Evans blue dye in tears versus vehicle injected eyes ([1]; 50 microliters of 100 mg/ml in DMSO, throughout the experiment): about the same amount of Evans blue dye as did vehicle injected eyes

hyaluronic acid
epithelial healing time [2]: 7.1 days

NCCc1c[nH]cn1 [Histamine]
Injection (rabbit eyes): Trace | Mucous discharge (rabbit eyes): Trace | observable clinical response in the eyes (rabbit eyes; conditions not optimized): observable clinical response

B1: Angiopoietin-2: candidate stimulator of vascular permeability (protein, UniProt O15123 19-496, looked up)
Angiopoietin-2: YNNFRKSMDSIGKKQYQVQHGSCSYTFLLPEMDNCRSSSSPYVSNAVQRDAPLEYDDSVQRLQVLENIMENNTQWLMKLENYIQDNMKKEMVEIQQNAVQNQTAVMIEIGTNLLNQTAEQTRKLTDVEAQVLNQTTRLELQLLEHSLSTNKLEKQILDQTSEINKLQDKNSFLEKKVLAMEDKHIIQLQSIKEEKDQLQVLVSKQNSIIEELEKKIVTATVNNSVLQKQQHDLMETVNNLLTMMSTSNSAKDPTVAKEEQISFRDCAEVFKSGHTTNGIYTLTFPNSTEEIKAYCDMEAGGGGWTIIQRREDGSVDFQRTWKEYKVGFGNPSGEYWLGNEFVSQLTNQQRYVLKIHLKDWEGNEAYSLYEHFYLSSEELNYRIHLKGLTGTAGKISSISQPGNDFSTKDGDNDKCICKCSQMLTGGWWFDACGPSNLNGMYYPQRQNTNKFNGIKWYYWKGSGYSLKATTMMIRPADF
Chemosis (rabbit eyes): None | Injection (rabbit eyes): None | Mucous discharge (rabbit eyes): None
